Laboratory results as given in patent US4474775A, “Pyrazol-4-yl phosphates and insecticidal and acaricidal use” (priority 1979, dated 1984).

Tests used:
Unaspis yanonensis = assay: Effectiveness against Unaspis yanonensis (Testing Example 3); type: in vivo; conditions: 480 h, second-instar larvae, 500 ppm wettable powder suspension sprayed, 20th day after spraying
Experimental: Testing Example 3: Effectiveness of Unaspis yanonensis
A test compound was processed into a wettable powder in accordance with the formulation of Example 7, and was diluted with water (with Dyne®, spreading agent, as diluted 3000-fold) to prepare a 500 ppm aqueous suspension. 20 ml of the aqueous suspension was sprayed on second-instar larvae (10 to 50 of the number parasitized) of Unaspis yanonensis on a seedling of Citrus trifoliate (2 months after germination) being planted in a pot (9 cm in diameter). After the sprayed pot was transferred to a greenhouse (25° to 30°C.), adult insects were counted on the 20th day after spraying. Mortality (%) is calculated by the following equation: [formula]

[1] = Oral acute toxicity in mice (Toxicological Test); conditions: mouse, in vivo, five-week aged ddY-SLC strained male mice
From the text: Below tabulated are the oral acute toxicity values obtained with five-week aged, ddY-SLC strained male mice: […]

Tetranychus urticae = assay: Effectiveness against Tetranychus urticae (Testing Example 4); type: in vivo; conditions: decrease rate grade, 500 ppm spray on kidney bean plant; for Efficacy grading, 2nd day: 2nd day after spraying; for Efficacy grading, 7th day: 7th day after spraying
Experimental: Testing Example 4: Effectiveness against Tetranychus urticae
A test compound was processed into an emulsifiable concentrate in accordance with the formulation of Example 6, and diluted with water (with Dyne®, spreading agent, as diluted 3000-fold) to prepare a 500 ppm aqueous solution. Ten female adults of Tetranychus urticae) were infected on the seedling of a kidney bean plant water-cultured in a polyethylene cup, and the cups were placed in a glass chamber (28° C.) for 24 hours, followed by spraying 20 ml of the aqueous solution on the kidney bean plant. After the sprayed cup was placed again in the glass chamber, the number of the adults and larvae living on the leaves was counted on the 2nd and 7th days after spraying. The test was repeated twice, and the test results are tabulated in Table 5 in terms of the efficacy grading as determined by calculating a decrease rate by the following equation:
Decrease rate (%)=[(number of mites tested-number of larvae living on the day of inspection)/(number of mites tested)]×100

Spodoptera litura = assay: Effectiveness against Spodoptera litura (Testing Example 2); type: in vivo; conditions: second-instar larvae, 500 ppm spray on soybean, 28° C., 24 hours
Experimental: Testing Example 2: Effectiveness against Spodoptera litura
Twenty milliliters of a 500 ppm, water-diluted solution (with Dyne® Takeda Chem. Ind. Ltd., spreading agent, as diluted 3000-fold) of the test compound (the emulsifiable concentrate of Example 6) was sprayed on grown seedlings (10 days after germination) of soybean plant water-cultured in a polyethylene cup by the use of a spray gun (nozzle pressure of 1 kg/cm^2 gauge) in a spraying chamber. 2 hours after spraying, two main leaves of soybean plant were cut off and were placed into two cups (6 cm in diameter and 4 cm in depth), respectively, and ten second-instar larvae of Spodoptera litura were liberated. The cups were left in the room (28° C.) for 24 hours, and the dead larvae were counted.

Laodelphax striatellus [2] = assay: Effectiveness against Laodelphax striatellus, third-instar larvae, root dip (Testing Example 1 (a)); type: in vivo; conditions: 40 ppm emulsifiable concentrate dilution, root dip 2 hours, 28° C., 24 hours, read-out: Mortality (I)
Experimental: (§1) Testing Example 1: Effectiveness against Laodelphax striatellus
(a) A test compound was processed into an emulsifiable concentrate in accordance with the formulation of Example 6, followed by diluting with water to prepare a treating solution of a 40 ppm concentration. 2.5 ml of the treating solution was placed into a test tube (with 1.7 cm of diameter, 4 cm deep), in which three seedlings of a paddy-rice plant (on the 7th day after germination) were allowed to stand so their root portions were dipped into the solution for 2 hours. The seedlings were then transferred into a test tube having 1 ml water placed in the bottom, and ten third-instar larvae of Laodelphax striatellus were released. After allowing the test tube to stand in the room (28° C.) for 24 hours, the dead larvae were counted. The test is repeated twice, and the test results are tabulated, in terms of mortality, in Table 2 (I).

Laodelphax striatellus [3] = assay: Effectiveness against Laodelphax striatellus, adults, dust on paddy-rice plant (Testing Example 1 (b)); type: in vivo; conditions: small brown planthopper, adults on dusted rice, 24 h
Experimental: as §1
(b) A test compound was processed into a dust preparation in accordance with the formulation of Example 8, and […] of the preparation was dusted on the potted paddy-rice plant (1/5,000 a) by the Berger Duster method. After dusting, leaves (15 cm long) of the paddy rice were cut off and were placed in a test tube containing 1 ml of water in the bottom, and ten adults of Laodelphax striatellus were released therein. After allowing the test tube to stand in the room (28° C.) for 24 hours, the dead insects were counted.

| SMILES | mortality at 500 µg/mL (Unaspis yanonensis) | LD50 [1] | Efficacy grading, 2nd day (Tetranychus urticae) | Efficacy grading, 7th day (Tetranychus urticae) | mortality at 500 ppm (Spodoptera litura) | mortality at 40 µg/mL (Laodelphax striatellus [2]) | Mortality (II) (Laodelphax striatellus [3]) |
| --- | --- | --- | --- | --- | --- | --- | --- |
| COP(=S)(OC)Oc1cnn(-c2ccccc2)c1 [Compound No. 1] | 86% | > 300 mg/kg | 3 (Not less than 90) | 3 (Not less than 90) | – | – | – |
| CCCOP(=S)(OCC)Oc1cnn(-c2ccccc2)c1 (centres unmarked) [Compound No. 3] | 79% | > 300 mg/kg | 3 (Not less than 90) | 0 (Not more than 20) | – | – | – |
| CCCSP(=O)(OCC)Oc1cnn(-c2ccccc2)c1 (centres unmarked) [Compound No. 4, O-ethyl-O-(1-phenylpyrazol-4-yl)-S-n-propylphosphorothiolate] | 84% | > 300 mg/kg | 3 (Not less than 90) | 3 (Not less than 90) | 100% | – | – |
| CCCSP(=O)(OCC)Oc1cnn(-c2ccc(Cl)c(Cl)c2)c1 (centres unmarked) [Compound No. 31, O-ethyl-O-[3,4-dichlorophenyl)pyrazol-4-yl]-S-n-propyl phosphorothiolate] | 75% | > 300 mg/kg | 3 (Not less than 90) | 3 (Not less than 90) | 100% | 100% | 90% |
| CCOP(=S)(OCC)Oc1cnn(-c2ccccc2)c1 [compound 2] | 75% | > 300 mg/kg | – | – | – | – | – |
| CCCSP(=O)(OCC)Oc1cnn(-c2ccccc2Cl)c1 (centres unmarked) [compound 12] | 71% | > 300 mg/kg | 3 (Not less than 90) | 3 (Not less than 90) | 100% | – | – |
| CCCSP(=S)(OCC)Oc1cnn(-c2ccc(OC)cc2)c1 (centres unmarked) [compound 25] | 100% | > 300 mg/kg | 3 (Not less than 90) | 3 (Not less than 90) | 100% | – | – |
| CCCSP(=O)(OCC)Oc1cnn(-c2ccc(Cl)cc2Cl)c1 (centres unmarked) [compound 29] | 97% | ~300 mg/kg | 3 (Not less than 90) | 3 (Not less than 90) | 100% | 95% | 30% |
| CCCSP(=O)(OCC)Oc1cnn(-c2cc(Cl)cc(Cl)c2)c1 (centres unmarked) [compound 33] | 70% | > 300 mg/kg | 3 (Not less than 90) | 3 (Not less than 90) | 100% | 100% | 65% |
| CCOP(=S)(OCC)Oc1cnn(-c2ccc(C)cc2C)c1 [compound 34] | 79% | > 300 mg/kg | – | – | – | – | – |
| CCCSP(=O)(OCC)Oc1cnn(-c2ccc(C)cc2C)c1 (centres unmarked) [compound 35] | 82% | ~300 mg/kg | 3 (Not less than 90) | 3 (Not less than 90) | 100% | – | – |
